Measurements published in publication PMC12040169 (PLOS Biology, 2025).

Assay: in vitro
Conditions: human, hela cells, % viability

Compared with `COc1ccc(C(C)C)cc1-c1cn2ccnc2c(Nc2ccc(N3CCOCC3)cc2)n1` [CBK037338], `c1ccc2c(-c3cn4ccnc4c(N4CCOCC4)n3)cccc2c1` [CBK037387] is lower in viability at 28.5 h, 10 µM: 103% for the first, 91.6% for the second.

Going from `O=C(c1ccco1)N1CCN(c2cncc(-c3cccc4cccnc34)n2)CC1` [CBK037339] to `N#Cc1ccccc1N1CCN(c2cncc(-c3cccc4cccnc34)n2)CC1` [CBK037366], the viability at 28.5 h, 10 µM rises from 96.9% to 102%.

Going from `OCCCNc1nccnc1-c1ccco1` [CBK037346] to `OCCCNc1nccnc1-c1ccc(F)cc1` [CBK037348], the viability at 28.5 h, 10 µM rises from 99.2% to 109%.

Compared with `c1ccc(-c2cn3ccnc3c(NCC3CCOCC3)n2)cc1` [CBK037356], `COc1cc(-c2cn3ccnc3c(NCC3CC3)n2)ccc1O` [CBK037538] is higher in viability at 28.5 h, 10 µM: 99.1% for the first, 106% for the second.

Compared with `OCCC1CCCCN1c1nccnc1-c1ccsc1` (centres unmarked) [CBK037358], `CC(=O)c1ccc(-c2nccnc2N2CCCC2CO)s1` (centres unmarked) [CBK037483] is higher in viability at 28.5 h, 10 µM: 105% for the first, 113% for the second.

Going from `c1coc(-c2cn3ccnc3c(Nc3ccc4[nH]ccc4c3)n2)c1` [CBK037361] to `c1ccc(CNc2nc(-c3ccco3)cn3ccnc23)nc1` [CBK037482], the viability at 28.5 h, 10 µM rises from 91.9% to 96.6%.

Going from `Clc1ccccc1-c1nccnc1NCc1cccs1` [CBK037362] to `Fc1ccccc1-c1nccnc1NCc1ccncc1` [CBK037540], the viability at 28.5 h, 10 µM rises from 98.6% to 101%.

First: CC(C)[C@@H](CO)Nc1nc(-c2ccccc2Cl)cn2ccnc12 [CBK037368]
Second: CC(C)[C@@H](CO)Nc1nc(-c2cc(C(F)(F)F)cc(C(F)(F)F)c2)cn2ccnc12 [CBK037496]
The viability at 28.5 h, 10 µM of the first is higher: 101% for the first, 84.9% for the second.

Going from `CCCC/C=C/c1nccnc1NCCc1ccncc1` [CBK037370] to `CCCC/C=C/c1nccnc1NCc1ccncc1` [CBK037500], the viability at 28.5 h, 10 µM rises from 99.9% to 108%.

First: COc1ccccc1-c1cn2ccnc2c(NCc2ccccc2)n1 [CBK037372]
Second: COc1cc(CNc2nc(-c3cccc4ccccc34)cn3ccnc23)cc(OC)c1OC [CBK037397]
The viability at 28.5 h, 10 µM of the first is lower: 92.7% for the first, 112% for the second.

First: COCCNc1nccnc1-c1cccnc1 [CBK037376]
Second: c1cncc(CCNc2nccnc2-c2cccnc2)c1 [CBK037380]
The viability at 28.5 h, 10 µM of the first is higher: 102% for the first, 93% for the second.

Going from `COc1cc(-c2cn3ccnc3c(N[C@@H]3CCN(Cc4ccccc4)C3)n2)cc(OC)c1OC` [CBK037385] to `COc1cc(-c2nccnc2N(C)Cc2ccccc2)cc(OC)c1OC` [CBK037424], the viability at 28.5 h, 10 µM falls from 113% to 96.5%.

First: Cc1cccc(C)c1-c1cn2ccnc2c(N2CCN(c3ccccn3)CC2)n1 [CBK037389]
Second: COc1cccc(OC)c1-c1cn2ccnc2c(NCc2ccccn2)n1 [CBK037439]
The viability at 28.5 h, 10 µM of the first is lower: 89% for the first, 93.7% for the second.

First: CN(Cc1ccccc1)c1nccnc1-c1ccsc1 [CBK037394]
Second: CCCC/C=C/c1nccnc1N(C)Cc1ccccc1 [CBK037412]
The viability at 28.5 h, 10 µM of the first is lower: 91% for the first, 99.8% for the second.

Compared with `CN(C)CCN(C)c1nc(-c2ccccc2F)cn2ccnc12` [CBK037406], `Fc1ccccc1-c1cn2ccnc2c(NCCc2cccnc2)n1` [CBK037473] is lower in viability at 28.5 h, 10 µM: 99.8% for the first, 88.1% for the second.

First: COc1cc(Nc2nc(-c3ccco3)cn3ccnc23)cc(OC)c1OC [CBK037413]
Second: COc1cc(CNc2nc(-c3c(C)cccc3C)cn3ccnc23)cc(OC)c1OC [CBK037415]
The viability at 28.5 h, 10 µM of the first is higher: 95.2% for the first, 91.1% for the second.

Compared with `O=[N+]([O-])c1cccc(CNc2nccnc2-c2ccccc2F)c1` [CBK037416], `Cc1cccc(CNc2nccnc2-c2cccc(Cl)c2)c1` [CBK037527] is higher in viability at 28.5 h, 10 µM: 102% for the first, 109% for the second.

Compared with `O=C(Nc1cccc(OCc2ccccc2)c1)c1cnc(-c2ccc(Cl)cc2)c(-c2ccco2)c1` [CBK037429], `O=C(NCCS(=O)(=O)c1ccccc1)c1cnc(-c2ccc(Cl)cc2)c(-c2ccco2)c1` [CBK037546] is higher in viability at 28.5 h, 10 µM: 93.9% for the first, 96.4% for the second.

First: COc1ccc(-c2cc(C(=O)NCc3cc(Cl)cc(Cl)c3)cnc2-c2ccc(Cl)cc2)cn1 [CBK037431]
Second: COc1ccc(-c2cc(C(=O)NCc3ccc4c(c3)OCO4)cnc2-c2ccccc2)cn1 [CBK037571]
The viability at 28.5 h, 10 µM of the first is lower: 88.8% for the first, 97.9% for the second.

First: Cc1cccc(-c2ncc(C(=O)NCCN3CCOCC3)cc2-c2ccc(O)cc2)c1 [CBK037435]
Second: O=C(NCCCN1CCCC1=O)c1cnc(-c2ccc(Cl)cc2)c(-c2ccncc2)c1 [CBK037545]
The viability at 28.5 h, 10 µM of the first is higher: 105% for the first, 74.8% for the second.

Compared with `OCCN1CCN(c2nc(-c3ccc4c(c3)OCO4)cn3ccnc23)CC1` [CBK037443], `c1ccc(Nc2nc(-c3ccc4c(c3)OCO4)cn3ccnc23)cc1` [CBK037494] is lower in viability at 28.5 h, 10 µM: 99.1% for the first, 92.2% for the second.

Compared with `OCc1ccccc1-c1nccnc1NCCc1cccnc1` [CBK037444], `Nc1cccc(-c2nccnc2NCCc2ccccn2)c1` [CBK037512] is higher in viability at 28.5 h, 10 µM: 94% for the first, 102% for the second.

First: O=C(Nc1ccc2[nH]ccc2c1)c1cnc(-c2ccc(F)cc2)c(-c2ccncc2)c1 [CBK037451]
Second: CCNC(=O)c1cnc(-c2ccc(F)cc2)c(-c2ccncc2)c1 [CBK037477]
The viability at 28.5 h, 10 µM of the first is lower: 91.9% for the first, 101% for the second.

First: COc1ccc(-c2cc(C(=O)Nc3ccc(CCO)cc3)cnc2-c2cccc(C)c2)cn1 [CBK037461]
Second: COc1ccc(NC(=O)c2cnc(-c3cccc(C)c3)c(-c3ccco3)c2)cc1 [CBK037491]
The viability at 28.5 h, 10 µM of the first is higher: 91.8% for the first, 83.9% for the second.

Going from `Nc1ccc(NC(=O)c2ccc(NC(=O)c3cnc(-c4ccccc4)c(-c4ccncc4)c3)cc2)cc1` [CBK037463] to `O=C(Nc1ccc(O)cc1)c1cnc(-c2ccc(Cl)cc2)c(-c2cccnc2)c1` [CBK037516], the viability at 28.5 h, 10 µM falls from 101% to 94.7%.

Compared with `O=C(NCC(F)(F)F)c1cnc(-c2ccc(Cl)cc2)c(-c2ccco2)c1` [CBK037468], `COc1cc(NC(=O)c2cnc(-c3ccc(Cl)cc3)c(-c3ccco3)c2)cc(C(F)(F)F)c1` [CBK037570] is higher in viability at 28.5 h, 10 µM: 86.2% for the first, 91.4% for the second.

Going from `OCc1cccc(-c2nccnc2NCc2ccc(OC(F)(F)F)cc2)c1` [CBK037476] to `Nc1ccc(CCNC(=O)c2cnc(-c3cccc(C(F)(F)F)c3)c(-c3ccncc3)c2)cc1` [CBK037580], the viability at 28.5 h, 10 µM falls from 108% to 90.8%.

First: COc1cccc(NC(=O)c2cnc(-c3ccccc3)c(-c3cccnc3)c2)c1OC [CBK037487]
Second: COCCNC(=O)c1cnc(-c2ccccc2)c(-c2cccnc2)c1 [CBK037515]
The viability at 28.5 h, 10 µM of the first is lower: 92.8% for the first, 106% for the second.

Going from `CCCC/C=C/c1nccnc1N[C@@H](CO)C(C)C` [CBK037514] to `CC(C)[C@H](CO)Nc1nccnc1-c1cccc(O)c1` [CBK037542], the viability at 28.5 h, 10 µM falls from 101% to 96.1%.

Going from `CC(=O)N1CCN(C(=O)c2cnc(-c3ccc(Cl)cc3)c(-c3ccco3)c2)CC1` [CBK037518] to `COc1ccc(-c2cc(C(=O)N3CCN(C(C)=O)CC3)cnc2-c2ccc(Cl)cc2)cc1` [CBK037577], the viability at 28.5 h, 10 µM rises from 98.1% to 102%.

Compared with `CC(C)[C@@H](CO)NC(=O)c1cnc(-c2cccc(C(F)(F)F)c2)c(-c2cccnc2)c1` [CBK037520], `O=C(Nc1ccc2ncccc2c1)c1cnc(-c2cccc(C(F)(F)F)c2)c(-c2cccnc2)c1` [CBK037591] is lower in viability at 28.5 h, 10 µM: 112% for the first, 89.9% for the second.

First: c1ccc(CNc2nccn3ccnc23)nc1 [CBK037526]
Second: COc1cccc(CNc2nccnc2-c2ccsc2)c1OC [CBK037543]
The viability at 28.5 h, 10 µM of the first is lower: 104% for the first, 107% for the second.

Compared with `O=C(Nc1ccc2c(c1)OCCO2)c1cnc(-c2ccc(Cl)cc2)c(-c2cccnc2)c1` [CBK037528], `O=C(NCc1ccc2c(c1)OCO2)c1cnc(-c2ccc(Cl)cc2)c(-c2ccco2)c1` [CBK037547] is lower in viability at 28.5 h, 10 µM: 110% for the first, 98.3% for the second.

First: O=C(NCC(c1ccccc1)N1CCOCC1)c1cnc(-c2ccc(F)cc2)c(-c2ccco2)c1 (centres unmarked) [CBK037531]
Second: O=C(NCc1nc2ccccc2[nH]1)c1cnc(-c2ccc(Cl)cc2)c(-c2ccco2)c1 [CBK037555]
The viability at 28.5 h, 10 µM of the first is lower: 95.7% for the first, 106% for the second.

Compared with `CC(NC(=O)c1cnc(-c2cccc(C(F)(F)F)c2)c(-c2ccncc2)c1)c1ccc(F)cc1` (centres unmarked) [CBK037556], `Nc1cccc(-c2nc(NC(=O)c3ccncc3)cnc2-c2ccc(F)c(Cl)c2)c1` [CBK037573] is higher in viability at 28.5 h, 10 µM: 99.7% for the first, 114% for the second.

Going from `CC(=O)c1ccc(-c2nc(NC(=O)c3cccs3)cnc2-c2ccc(F)cc2)s1` [CBK037558] to `Cc1ccc(S(=O)(=O)NCC(=O)Nc2cnc(-c3cccc(C)c3)c(-c3ccc(N)cc3)n2)cc1` [CBK037600], the viability at 28.5 h, 10 µM rises from 81.8% to 83.5%.

Going from `NC1CCC(NC(=O)c2cnc(-c3ccc(Cl)cc3)c(-c3ccco3)c2)CC1` (centres unmarked) [CBK037563] to `O=C(NC1CCN(Cc2ccccc2)CC1)c1cnc(-c2ccc(Cl)cc2)c(-c2cccnc2)c1` [CBK037602], the viability at 28.5 h, 10 µM falls from 105% to 92.2%.

Compared with `Cc1cccc(-c2ncc(NC(=O)Cc3ccc(-c4ccccc4)cc3)nc2-c2ccc(N(C)C)cc2)c1` [CBK037567], `Cc1cccc(-c2ncc(NC(=O)Cc3cccc(Oc4ccccc4)c3)nc2-c2ccc(N)cc2)c1` [CBK037583] is lower in viability at 28.5 h, 10 µM: 98.1% for the first, 97.2% for the second.

Compared with `COc1ccc(-c2cc(C(=O)NCc3nc4ccccc4[nH]3)cnc2-c2ccccc2)cn1` [CBK037579], `COc1ccc(-c2cc(C(=O)N[C@H]3CCN(Cc4ccccc4)C3)cnc2-c2ccccc2)cn1` [CBK037605] is lower in viability at 28.5 h, 10 µM: 99.6% for the first, 93.9% for the second.

Compared with `COc1ccc(Nc2ccc(-c3cccc(N(C)C)c3)cn2)cn1` [CBK037588], `COc1ccc(-c2ccc(Nc3cccc(N(C)C)c3)nc2)cc1OC` [CBK037606] is lower in viability at 28.5 h, 10 µM: 95.5% for the first, 90% for the second.

First: COc1cc(CNc2cccc(-c3ccsc3)n2)cc(OC)c1 [CBK037592]
Second: COc1cc(Nc2cccc(-c3ccc4ccccc4c3)n2)cc(OC)c1OC [CBK037612]
The viability at 28.5 h, 10 µM of the first is lower: 97.8% for the first, 97.9% for the second.

Going from `CO[C@@H](C(=O)Nc1cnc(-c2cccc(C)c2)c(-c2ccco2)n1)c1ccccc1` [CBK037613] to `COC(=O)c1ccc(Nc2cccc(-c3cccc(N)c3)n2)cc1OC` [CBK037619], the viability at 28.5 h, 10 µM falls from 105% to 102%.

Compared with `C(=C\c1cccc(Nc2ccc(Oc3ccccc3)cc2)n1)/c1ccccc1` [CBK037614], `COc1ccc(-c2cc(C(=O)NCCS(C)(=O)=O)cnc2-c2ccc(Cl)cc2)cc1` [CBK037620] is higher in viability at 28.5 h, 10 µM: 94.1% for the first, 111% for the second.
